The source of these data is US6518259B1, “Compositions for treating autoimmune disease” (The Regents of the University of Michigan, priority 1998, dated 2003).

What all share (assay type): cell-based, human
Test [1] relates to EBV transformed B cell lines from RA patients. The experiment in a line: Anti-Fas antibody CH-11-mediated killing of EBV transformed B cell lines, MTS kit. The conditions noted are these: preincubation 1 μg/ml for 1 hr, CH-11 100 ng/ml over a time course, FIG. 5D. Here is the method: In this example, the susceptibility of lymphocytes to cell death is examined. As noted above, it is believed that prevention of immune-mediated self injury requires prompt elimination of activated lymphocytes at the end of an immune response. […] Briefly, PHA T cell lymphoblasts from 6 normal controls and 6 RA patients were established by stimulating peripheral blood mononuclear cells with 0.5 μg/ml PHA for 3 days, followed by expansion in 20 U/ml of recombinant human IL-2 (Collaborative Biomedical Products, Bedford, Mass.). Day-10 T cell lymphoblasts were incubated with 125 ng/ml of the agonist anti-Fas monoclonal antibody CH-11 (the antibody was immobilized and 1×10^5 cells per well were used). In all experiments, control mouse monoclonal IgM antibody (TEPC-183, from Sigma) was used in equivalent concentrations. Cell death was determined at different time points, using a commercial MTS kit (Promega, Madison. Wis.). Microplate wells were read by ELISA plate reader at 490 nm.
Additionally, pre-incubating RA targets with pertussis toxin reversed their resistance to Fas-mediated and γδ T cell-mediated killing (FIGS. 5D and 5E). […] Cell death was determined using the commercial MTS kit (Promega, Madison, Wis.). […] At the end of incubation, targets were washed and susceptibility to γδ T cell killing was determined using a 4 hr ^51Cr-release assay.

In test [2] the test system is EBV transformed B cell targets from RA patients. Description: Cytolysis of EBV transformed target cells by Vγ9/Vδ2 T cells, 4 hr 51Cr release assay. Here is the method:
Fas-mediated cell death in-vivo is thought to be triggered, primarily, by cytotoxic T cells. […] However, susceptibility to cytolysis is markedly different between the two groups when determined using standard 4 hour ^51Cr release assays. FIG. 2C is a bar graph showing the susceptibility to cytolysis by Vγ9/Vδ2 T cell clones determined in EBV transformed lines from 23 normal controls, 18 patients with RA, 6 patients with pauciarticular-onset juvenile arthritis (“pJA”), and 3 patients with autoimmune thyroiditis. Lymphoblastoid target lines from all 23 normal controls tested were efficiently killed by Vγ9/Vδ2 clones, while none of the lines from 18 RA patients were susceptible. […]
Inhibition of Fas-mediated death signaling by SPP was also examined using γδ […]. Cytolysis of EBV transformed target cells by Vγ9/Vδ2 T cells was determined by 4 hr ^51Cr release assay (FIG. 5C) in the presence (●) or absence (∘) of 2.5 μM DMS. At the end of incubation, targets were washed and susceptibility to killing by γδ T cells was assessed.
Additionally, pre-incubating RA targets with pertussis toxin reversed their resistance to Fas-mediated and γδ T cell-mediated killing (FIGS. 5D and 5E). […] Cell death was determined using the commercial MTS kit (Promega, Madison, Wis.). […]

Test [3] has as its system RA EBV transformed target cells. The experiment in a line: Anti-Fas antibody CH-11-induced apoptosis of RA EBV transformed target cells with MEK1 inhibitor. Conditions: 16 hr CH-11 200 ng/ml, FIG. 6. Here is the method: As noted above, it is not intended that the present invention be limited to any one inhibitor. In this example, resistance to Fas-mediated cell killing is shown to be reversed by preincubation of target cells with a MEK1 inhibitor. Apoptosis of RA EBV transformed target cells was induced by 16 hr stimulation with anti-Fas antibody CH-11 (200 ng/ml) in the presence (FIG. 6, black bars) or absence (FIG. 6, open bars) of 100 µM of the MEK1 inhibitor 2-(2′-amino3′-methoxyphenyl-oxanaphthalen-4-one) (PD098059).

The subject of test [4] is caspases (CPP32, PARP cleavage). Description: Western blot of CPP32 and PARP cleavage after anti-Fas antibody stimulation, with or without caspase inhibitor. Conditions: preincubated 1 hr with 40 μM, then 100 ng/ml anti-Fas antibody. Here is the method: In some examples below, Western blots were performed. For Western blot analysis, 5×10^6 cells were washed and suspended in 100 μl of lysis buffer [1% sodium dodecyl sulfate (SDS), 1 mM sodium vanadate, 10 mM Tris (pH 7.6)], and boiled for 5 min. After micro-centrifugation at 14,000 rpm, for 10 min, supernatants (cell lysates) were recovered. The protein concentration of the lysates was determined with bicinchoninic acid (BCA) protein assay reagent (Pierce). For CPP32 immunoblots, cell lysates (10-20 μg of protein per lane) were separated on 15% SDS-polyacrylamide gels under reducing conditions, transferred to polyvinylidene difluoride (PVDF) membranes (Millipore), and probed with mouse monoclonal anti-CPP32 (clone #19, IgG2a, from Signal Transduction Labs, Lexington, Ky.) followed by sheep F(ab′)2 fragment horseradish peroxidase-conjugated, anti-mouse Ig (Amersham). For PARP immunoblots, cell lysates (10 μg of protein per lane) were separated on 7.5% SDS-polyacrylamide gels, transferred to PVDF membrane, and probed with monoclonal mouse anti-human PARP antibody C2.10 (IgG1, Enzyme Systems Products Dublin, Calif.). Antibody binding was detected with an ECL detection system (Amersham).
Briefly, cells were preincubated for 1 hr in the presence or absence of 40 μM of Z-VAD-fmk, and subsequently incubated with 100 ng/ml of the anti-Fas antibody […]. At different time points thereafter, cells were collected, lysed and a Western blot analysis performed with the relevant antibodies.
On the technique in general: In western blotting, separated proteins are transferred to a membrane and probed.

Test [5] deals with EBV transformed B cell lines from RA patients. The experiment in a line: Anti-Fas antibody CH-11-induced apoptosis of EBV transformed target cells, TUNEL assay. Conditions: prior incubation of target cells (2.5 μM DMS), 8 hr CH-11 100 ng/ml, serum-free RPMI 1640, FIG. 5B. As for the experimental part:
In some of the examples below, the TUNEL assay was used. TdT-mediated dUTP-biotin nick end-labeling (TUNEL) assay was performed as described [see (Gorczyca, W, et al. Leukemia 7, 659-70 (1993)]. Briefly, cells were fixed in 1% buffered formaldehyde (pH 7.4) for 15 min on ice, washed in phosphate-buffered saline (PBS) and stored at 4° C. in 70% ethanol. Subsequently, cells were resuspended in 50 μl of a solution containing: 5 unites of terminal deoxynucleotidyl transferase (Boehringer Mannheim, Indianapolis, Ind.), 2.5 mM CoCl2,0.2 M potassium cacodylate, 25 mM Tris-HCl, 0.25 mg/ml bovine serum albumin, 0.5 nmoles biotin-16-dUTP (Boehringer Mannheim Biochemicals, Indianapolis, Ind.). […] Green (b-dUTP) and red (DNA) fluorescence of individual cells were measured with an EPICS Elite Flow Cytometer (Coulter, Hialeah. Fla., USA).
SPP, a potent derivative of sphingosine, has been recently shown to activate a pertussis toxin-sensitive G protein and to inhibit Fas-mediated cell death, Therefore, the ability of SPP to inhibit apoptosis in RA lymphocytes was investigated Apoptosis induced by 8 hr stimulation with the anti-Fas antibody CH-11 (100 ng/ml) was determined in EBV transformed target cells in the presence FIG. 5B, dashed bars) or absence (FIG. 5B, open bars) of 2.5 μM DMS in serum-free RPMI 1640 medium supplemented with insulin and transferrin. […]

Where a SMILES comes first, the peptide text is derived from it. The star is where a group is joined. Cbz = O=C(OCc1ccccc1)*; CH2F = FC*

On to pertussis toxin, for which, in test [1], the “resistance of RA targets to Fas-mediated killing” value is “reversed”. In test [2] (preincubation 1 μg/ml for 1 hr, 4 hr 51Cr-release, FIG. 5E), the “resistance of RA targets to γδ T cell-mediated killing” value was “reversed”.
As for `COc1cccc(-c2cc(=O)c3ccccc3o2)c1N` [PD098059, 2-(2′-amino3′-methoxyphenyl-oxanaphthalen-4-one)], the “resistance to Fas-mediated cell killing” value in test [3] was “reversed”.
Turning to `COC(=O)C[C@H](NC(=O)[C@H](C)NC(=O)[C@@H](NC(=O)OCc1ccccc1)C(C)C)C(=O)CF` [Z-VAD-fmk, N-benzyloxycarbonyl-Val-Ala-Asp(O-methyl)-fluromethylketone] (Cbz-Val-Ala-Asp(OMe)-CH2F), the “subsequent cell death after Fas ligation” value in test [4] is given as “blocks”. For the same molecule, the “cleavage of PARP” value in test [4] (Western blot, FIG. 4A lower panel) is “blocks”. Besides, the “proteolytic processing of CPP32” value in test [4] (Western blot, FIG. 4A upper panel) is reported as “blocks”.
In the case of `CCCCCCCCCCCCCCC[C@H](O)[C@@H](N)CO` (racemic) [DHS, DL-threo-dihydrosphingosine], the “resistance of RA targets to apoptosis by anti-Fas antibodies” value in test [5] is on record as “effectively reversed”. For the same molecule, the “resistance of RA targets to apoptosis by γδ T cells” value in test [2] (prior incubation of target cells (2.5 μM DMS), 4 hr 51Cr release, FIG. 5C) is listed as “effectively reversed”.
